Measured values published in the NIST ThermoML archive (doi:10.1016/j.jct.2017.02.004).
± gives the expanded uncertainty stated by the source.

How the values were obtained:
[1] = mn = molality of the nth substance listed, in mol/kg; settings: 100 kPa, Liquid; for speed of sound: Frequency=3 MHz, Single path-length method; for mass density: Vibrating tube method
[2] = 100 kPa, Liquid; for speed of sound: Frequency=3 MHz, Single path-length method; for mass density: Vibrating tube method

CCCCn1cc[n+](C)c1.F[B-](F)(F)F [1-butyl-3-methylimidazolium tetrafluoroborate] + [Cl-].[Li+]
speed of sound ([1]; 288.15 K, m2 = 0): 1591 ± 1.8 m/s | mass density ([1]; 288.15 K, m2 = 0): 1209.05 ± 0.77 kg/m3 | speed of sound ([1]; 293.15 K, m2 = 0): 1578.9 ± 1.8 m/s | mass density ([1]; 293.15 K, m2 = 0): 1205.5 ± 0.77 kg/m3 | speed of sound ([1]; 298.15 K, m2 = 0): 1566.9 ± 1.8 m/s | mass density ([1]; 298.15 K, m2 = 0): 1201.96 ± 0.76 kg/m3 | speed of sound ([1]; 303.15 K, m2 = 0): 1555.1 ± 1.8 m/s | mass density ([1]; 303.15 K, m2 = 0): 1198.42 ± 0.76 kg/m3 | speed of sound ([1]; 308.15 K, m2 = 0): 1543.4 ± 1.8 m/s | mass density ([1]; 308.15 K, m2 = 0): 1194.87 ± 0.75 kg/m3

[Cl-].[Li+] [lithium chloride] + CCCCn1cc[n+](C)c1.F[B-](F)(F)F
speed of sound ([1]; 288.15 K, m1 = 0.0999): 1595.5 ± 1.8 m/s | speed of sound ([1]; 288.15 K, m1 = 0.1499): 1597.7 ± 1.8 m/s | speed of sound ([1]; 288.15 K, m1 = 0.2): 1599.7 ± 1.8 m/s | speed of sound ([1]; 288.15 K, m1 = 0.2501): 1601.7 ± 1.8 m/s | speed of sound ([1]; 288.15 K, m1 = 0.3003): 1603.5 ± 1.8 m/s | speed of sound ([1]; 288.15 K, m1 = 0.3498): 1605.3 ± 1.8 m/s | mass density ([1]; 288.15 K, m1 = 0.0999): 1211.1 ± 0.77 kg/m3 | mass density ([1]; 288.15 K, m1 = 0.1499): 1212.17 ± 0.77 kg/m3 | mass density ([1]; 288.15 K, m1 = 0.2): 1213.24 ± 0.78 kg/m3 | mass density ([1]; 288.15 K, m1 = 0.2501): 1214.33 ± 0.78 kg/m3 | mass density ([1]; 288.15 K, m1 = 0.3003): 1215.46 ± 0.78 kg/m3 | mass density ([1]; 288.15 K, m1 = 0.3498): 1216.56 ± 0.78 kg/m3 | speed of sound ([1]; 293.15 K, m1 = 0.0999): 1583.3 ± 1.8 m/s | speed of sound ([1]; 293.15 K, m1 = 0.1499): 1585.4 ± 1.8 m/s | speed of sound ([1]; 293.15 K, m1 = 0.2): 1587.3 ± 1.8 m/s | speed of sound ([1]; 293.15 K, m1 = 0.2501): 1589.2 ± 1.8 m/s | speed of sound ([1]; 293.15 K, m1 = 0.3003): 1591 ± 1.8 m/s | speed of sound ([1]; 293.15 K, m1 = 0.3498): 1592.6 ± 1.8 m/s | mass density ([1]; 293.15 K, m1 = 0.0999): 1207.56 ± 0.77 kg/m3 | mass density ([1]; 293.15 K, m1 = 0.1499): 1208.61 ± 0.77 kg/m3 | mass density ([1]; 293.15 K, m1 = 0.2): 1209.68 ± 0.77 kg/m3 | mass density ([1]; 293.15 K, m1 = 0.2501): 1210.73 ± 0.77 kg/m3 | mass density ([1]; 293.15 K, m1 = 0.3003): 1211.88 ± 0.77 kg/m3 | mass density ([1]; 293.15 K, m1 = 0.3498): 1212.93 ± 0.77 kg/m3 | speed of sound ([1]; 298.15 K, m1 = 0.0999): 1571.2 ± 1.8 m/s | speed of sound ([1]; 298.15 K, m1 = 0.1499): 1573.3 ± 1.8 m/s | speed of sound ([1]; 298.15 K, m1 = 0.2): 1575.2 ± 1.8 m/s | speed of sound ([1]; 298.15 K, m1 = 0.3003): 1578.7 ± 1.8 m/s | speed of sound ([1]; 298.15 K, m1 = 0.3498): 1580.3 ± 1.8 m/s | mass density ([1]; 298.15 K, m1 = 0.0999): 1204.03 ± 0.76 kg/m3 | mass density ([1]; 298.15 K, m1 = 0.1499): 1205.08 ± 0.76 kg/m3 | mass density ([1]; 298.15 K, m1 = 0.2): 1206.14 ± 0.76 kg/m3 | mass density ([1]; 298.15 K, m1 = 0.2501): 1207.22 ± 0.77 kg/m3 | mass density ([1]; 298.15 K, m1 = 0.3003): 1208.31 ± 0.77 kg/m3 | mass density ([1]; 298.15 K, m1 = 0.3498): 1209.36 ± 0.77 kg/m3 | speed of sound ([1]; 303.15 K, m1 = 0.0999): 1559.4 ± 1.8 m/s | speed of sound ([1]; 303.15 K, m1 = 0.1499): 1561.4 ± 1.8 m/s | speed of sound ([1]; 303.15 K, m1 = 0.2): 1563.3 ± 1.8 m/s | speed of sound ([1]; 303.15 K, m1 = 0.2501): 1565.1 ± 1.8 m/s | speed of sound ([1]; 303.15 K, m1 = 0.3003): 1566.7 ± 1.8 m/s | speed of sound ([1]; 303.15 K, m1 = 0.3498): 1568.2 ± 1.8 m/s | mass density ([1]; 303.15 K, m1 = 0.0999): 1200.53 ± 0.76 kg/m3 | mass density ([1]; 303.15 K, m1 = 0.1499): 1201.61 ± 0.76 kg/m3 | mass density ([1]; 303.15 K, m1 = 0.2): 1202.69 ± 0.76 kg/m3 | mass density ([1]; 303.15 K, m1 = 0.2501): 1203.79 ± 0.76 kg/m3 | mass density ([1]; 303.15 K, m1 = 0.3003): 1204.94 ± 0.76 kg/m3 | mass density ([1]; 303.15 K, m1 = 0.3498): 1206.04 ± 0.76 kg/m3 | speed of sound ([1]; 308.15 K, m1 = 0.0999): 1547.7 ± 1.8 m/s | speed of sound ([1]; 308.15 K, m1 = 0.1499): 1549.7 ± 1.8 m/s | speed of sound ([1]; 308.15 K, m1 = 0.2): 1551.5 ± 1.8 m/s | speed of sound ([1]; 308.15 K, m1 = 0.2501): 1553.2 ± 1.8 m/s | speed of sound ([1]; 308.15 K, m1 = 0.3003): 1554.9 ± 1.8 m/s | speed of sound ([1]; 308.15 K, m1 = 0.3498): 1556.2 ± 1.8 m/s | mass density ([1]; 308.15 K, m1 = 0.0999): 1196.98 ± 0.75 kg/m3 | mass density ([1]; 308.15 K, m1 = 0.1499): 1198.07 ± 0.75 kg/m3 | mass density ([1]; 308.15 K, m1 = 0.2): 1199.16 ± 0.75 kg/m3 | mass density ([1]; 308.15 K, m1 = 0.2501): 1200.27 ± 0.76 kg/m3 | mass density ([1]; 308.15 K, m1 = 0.3003): 1201.37 ± 0.76 kg/m3 | mass density ([1]; 308.15 K, m1 = 0.3498): 1202.5 ± 0.76 kg/m3

CCCCn1cc[n+](C)c1.F[B-](F)(F)F [1-butyl-3-methylimidazolium tetrafluoroborate]
speed of sound ([2]; 288.15 K): 1591 ± 1.8 m/s | mass density ([2]; 288.15 K): 1209.05 ± 0.77 kg/m3 | speed of sound ([2]; 293.15 K): 1578.9 ± 1.8 m/s | mass density ([2]; 293.15 K): 1205.5 ± 0.77 kg/m3 | speed of sound ([2]; 298.15 K): 1566.9 ± 1.8 m/s | mass density ([2]; 298.15 K): 1201.96 ± 0.76 kg/m3 | speed of sound ([2]; 303.15 K): 1555.1 ± 1.8 m/s | mass density ([2]; 303.15 K): 1198.42 ± 0.76 kg/m3 | speed of sound ([2]; 308.15 K): 1543.4 ± 1.8 m/s | mass density ([2]; 308.15 K): 1194.87 ± 0.75 kg/m3
